Measured values from US6126918A, “Screening assays to identify therapeutic agents for amyloidosis” (Imperial College Innovations Limited, priority 1993, dated 2000).
Like-named read-outs stand apart in the source and are kept apart here.

Assays:
[1] = tested on: Alzheimer's disease β-protein fibrils; assay: Pronase digestion of Alzheimer's disease β-protein fibrils, SDS-PAGE; assay type: biochemical; settings: for Digestion of β-protein: SAP 10 μg/ml, pronase 1 μg/ml, 1 hour at 37° C.
Experimental: Alzheimer's disease β-protein, prepared as a synthetic peptide containing residues 1-40 was obtained from California Peptide Research, and was dissolved in pure water at 4 mg/ml, that is 1 mM. Some was kept at 4° C. ("fresh") and some was aged by incubation at 37° C. for 7 days. It is known that fibrils form very slowly in the cold but that "ageing" is associated with marked amyloid fibril formation, and this was confirmed in the present case by Congo red staining and by direct electron microscopy.
(a) β-protein solutions obtained as described above were diluted to 0.2 mg/ml in TC immediately before use. Highly purified human SAP in solution in 138 mM NaCl, 10 mM Tris, pH 8.0 (TN) was diluted in TN to 0.1 mg/ml, 0.5 mg/ml and 2.5 mg/ml Pronase from S. griseus was obtained from Boehringer Mannheim and was freshly prepared at 0.04 and 0.004 mg/ml in TC just before use.
Aliquots, 50 μl, of aged or fresh β-protein were mixed with 20 μl volumes of TN alone or SAP at the different concentrations shown in FIG. 5 and with 5 μl of 10 mM CaCl2, and then incubated with shaking at 37° C. for 1 hour. TC alone or pronase in TC at 0.04 or 0.004 mg/ml were added in a volume of 25 μl and incubation continued for a further 1 hour at 37° C. Digestion was then stopped by addition of an equal volume of reducing SDS-PAGE sample buffer (20 mM Tris pH 8.0, 2 mM EDTA, 5% w/v SDS, 10% w/v 2-mercaptoethanol, 0.05% w/v bromophenol blue, 20% w/v glycerol) and boiling for 10 minutes. These samples were finally analysed in reduced SDS homogeneous 15% PAGE, stained with Brilliant blue R350. The proportion of the β-protein present in each track was estimated by scanning densitometry with reference to the no pronase control which was taken as 100%. The proportion digested was calculated by subtraction and plotted against the SAP concentration.
(d) Abrogation of protection by MOβDG: β-protein fibrils at 100 μg/ml were incubated for 1 hour at 37° C. with pronase at 1 μg/ml, in the presence or absence of SAP and with or without different concentrations of MOβDG. The extent of digestion of the β-protein was then estimated by SDS-PAGE analysis.

AA amyloid fibrils = assay: Trypsin or chymotrypsin digestion of AA amyloid fibrils, SDS-PAGE quantification of AA protein band; assay type: biochemical, human; settings: 6 hours at 37° C.
Experimental: (b) AA amyloid fibrils obtained ex vivo were incubated for 6 hours at 37° C. with trypsin or chymotrypsin at a substrate:enzyme ratio of 10:1 in the presence or absence of SAP and with or without MOβDG, according to the general protocol given above. The incubation mixtures were then analysed by Coomassie blue stained SDS-PAGE with quantification of the AA protein band. Intensity of this band after incubation without trypsin was taken as 100%.

[2] = tested on: amyloid fibrils of AA, AL and apoAI type; assay: Proteinase digestion of ex vivo amyloid fibrils (AA, AL, apoAI) in vitro; assay type: biochemical, human; settings: for Effect on fibril digestion by proteinases: protein added to incubation mixtures, 37° C.
SAP [3] = biological target: T1, SAP (Homo sapiens, UniProt P02743); assay: Calcium-dependent aggregation of SAP in neutral solution; settings: neutral solutions in the presence of calcium ions; unpublished observations
T1 construct: homopentamer, can form decamer; calcium-dependent ligand site
Source text: SAP rapidly aggregates in neutral solutions in the presence of calcium ions presumably due to intermolecular interactions involving the surface of the decamer with the exposed calcium binding site. […] Similarly they compete for the calcium site with Glu167 which is an important lattice contact in the pentamer crystals.

SAP [4] = biological target: T1, SAP; assay: Binding of DNA by SAP; settings: unpublished observations
Source text: SAP also binds polyanions such as heparan sulphate, dermatan sulphate and DNA [4] in the presence of calcium. […] There are several basic regions in SAP, for example Arg120, Arg77, His78, Lys79 and Arg57, which are on the same surface as the calcium and PE binding sites. It seems more likely that the phosphate backbone of DNA and the sulphated polysaccharides bind both at the calciums and at the basic sites, possibly on more than one subunit simultaneously. These extensive interactions probably account for the ability of SAP to displace from DNA the H1-type histones in chromatin [5]. The sequence differences in the basic regions and in the calcium binding region could explain the variable affinity for DNA shown by different pentraxins. Human CRP, for instance, only binds DNA at low, non-physiological ionic strength. […] Similar effects are observed for SAP binding to immobilised PE [unpublished observations]. As we can find no evidence for a second binding site for PE or MOβDG in the present experimental conditions, these effects must be mediated through inter-subunit interactions.

SAP [5] = biological target: T1, SAP; settings: neutral solutions in the presence of calcium ions; reference [44]; cited from earlier work
[6] = biological target: T2, SAP binding to AA type amyloid fibrils (Homo sapiens, UniProt P02743); assay: Inhibition of SAP binding to amyloid fibrils (125I-SAP); settings: concentrations above about 2 mM in the final incubation mixture
T2 construct: isolated at greater than 99% purity from pooled human ascites and pleural effusion fluids; from tissue; host or cells: SAP from pooled human ascites and pleural effusion fluids; fibrils from patients' organs such as spleen
Experimental: Amyloid fibrils are isolated from the organs, such as the spleen, obtained post mortem from patients with amyloidosis of AA or AL type, using the water extraction method of Pras et al. This method is modified in that the initial saline homogenizations are conducted using Tris buffered saline containing 10 mM EDTA to ensure complete dissociation of all endogenous SAP [56]. The fibril-rich water extract is mixed with Tris buffered saline containing calcium chloride to bring the final salt concentration to 138 m NaCl, 10 mM Tris, 2 mM CaCl2, pH 8.0, and this is then centrifuged at 1500 g for 5 minutes to sediment the fibrils. These are then resuspended in Tris saline calcium buffer, pH 8.0, at the same concentration as above (TC buffer), so as to provide a suitable suspension, for example, A280 =0.255, A320 =0.132, and this is stored at 4° C. […] Agents to be tested are dissolved at a concentration of about 10 mM in TC, or in 1:10 DMSO in water or TC. If they are active in inhibiting SAP binding they are tested at a range of lower concentrations to determine the minimal inhibitory dose.
For the assay itself 10 μl of labelled SAP is mixed with 50 μl of amyloid fibril suspension and 40 μl of the test substance and incubated, with mixing, for 60 minutes at room temperature. […] The fibrils are washed with TC containing 1% w/v BSA and the radioactive SAP bound is measured. […]

T1 sequence (P02743 20-223): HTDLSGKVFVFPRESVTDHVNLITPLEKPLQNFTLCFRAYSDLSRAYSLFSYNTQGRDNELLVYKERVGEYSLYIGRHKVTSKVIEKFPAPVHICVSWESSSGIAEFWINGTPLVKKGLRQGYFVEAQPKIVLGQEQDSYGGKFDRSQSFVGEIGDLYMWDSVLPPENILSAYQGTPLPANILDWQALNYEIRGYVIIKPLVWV
T2 sequence (P02743 20-223): as above

SAP: Serum amyloid P component, a normal human plasma protein; highly purified human SAP
Digestion of β-protein ([1]; MOβDG 0 mM): 60% | Protection of β-protein amyloid fibrils from proteolysis ([1]; fibrils produced in vitro from synthetic β-protein): protected the β-protein amyloid fibrils from proteolysis | % AA protein remaining (AA amyloid fibrils; Chymotrypsin, SAP 10 μg/ml, no MOβDG): 20% | % AA protein remaining (AA amyloid fibrils; Chymotrypsin, SAP 50 μg/ml, no MOβDG): 60% | % AA protein remaining (AA amyloid fibrils; Trypsin, SAP 10 μg/ml, no MOβDG): 20% | % AA protein remaining (AA amyloid fibrils; Trypsin, SAP 50 μg/ml, no MOβDG): 50% | Effect on fibril digestion by proteinases [2]: greatly reduced fibril digestion

CRP: C-reactive protein, control protein that does not bind to amyloid fibrils
Effect on fibril digestion by proteinases [2]: had no effect on their digestion

NCCOP(=O)(O)O [PE, phosphoethanolamine]
Inhibition of SAP aggregation (SAP [3]): can be inhibited | Effect on binding of DNA by SAP (SAP [4]): enhance the binding of DNA by SAP and compete with the interaction at high concentration

CO[C@@H]1O[C@@H]2CO[C@@](C)(C(=O)O)O[C@@H]2[C@H](O)[C@H]1O [MOβDG, methyl 4,6-O-(1-carboxyethylidene)-β-D-galactopyranoside]
Digestion of β-protein ([1]; MOβDG 1.3 mM): 75% | Digestion of β-protein ([1]; MOβDG 6.7 mM): 85% | Digestion of β-protein ([1]; MOβDG 33.3 mM): 90% | Protection by SAP in the presence of MOβDG ([1]; β-protein amyloid fibrils with SAP): completely abrogated | % AA protein remaining (AA amyloid fibrils; Chymotrypsin, SAP 50 μg/ml plus MOβDG 1 mM): 10% | % AA protein remaining (AA amyloid fibrils; Trypsin, SAP 50 μg/ml plus MOβDG 1 mM): 5% | Effect on binding of DNA by SAP (SAP [4]): enhance the binding of DNA by SAP and compete with the interaction at high concentration | Protective effect of SAP when MOβDG was included ([2]; MOβDG included in the incubation mixtures with SAP): completely abrogated | Inhibition of SAP aggregation (SAP [5]): can be inhibited | Effect on SAP binding to amyloid fibrils [6]: reduces binding to background levels
